# Measurements from US9486447B2, “Compositions and methods for controlling neuronal excitation” (The General Hospital Corporation, priority 2011, dated 2016).
# Where “and” joins values, the source holds several entries; their conditions need not be identical. Equal entries are not always repeated.
# Assays:
# [1] = tested on: dorsal root ganglia (DRG) sensory neurons; experiment: Calcium imaging of DRG sensory neurons; type: cell-based, mouse
# Description: To determine if optovin acts on sensory neurons, the activity of treated and untreated dorsal root ganglia (DRG) sensory neurons isolated from wild type mice were compared. […] TRPA1 channels play important roles in detecting chemical, thermal, and mechanical stimuli in a variety of organisms^34,35.
# C57Bl/6 male mice (3-4 weeks old) were decapitated and DRG were dissected into 4° C. Hank's Balanced Salt Solution (HBSS; Gibco), then neurons were dissociated using collagenase (1 mg/mL; Worthington) and dispase (5 mg/mL; Gibco) dissolved in HBSS. Neurons were plated in Neurobasal-A medium (Invitrogen), supplemented with B-27 Supplement (Gibco), L-glutamine (Gibco), and penicillin-streptomycin (Gibco). The neurons were plated onto coverslips coated with 0.1 mg/mL poly-D-lysine (Sigma) and 5 μg/mL laminin (Sigma). After 24 h, neurons were washed with assay buffer (HBSS, supplemented with 9 mM HEPES, 11 mM D-glucose, 0.1% fatty-acid free BSA, pH 7.3) and incubated for 1 h with 2 μM Fura2-AM (Invitrogen) with 0.2% pluronic (Invitrogen) in assay buffer in the dark at room temperature. The neurons were then washed with assay buffer and allowed to equilibrate at room temperature for 30 min prior to imaging. After a 120 s baseline perfusion of assay buffer containing 3.3% DMSO, 100 μM optovin dissolved in the DMSO-assay buffer solution, or the DMSO-assay buffer solution alone as a control, was perfused onto the neurons for a period of 1 min. Fura-2 is activated with UV-light, and the process of imaging Fura-2 was enough to activate the optovin. […] Following this one-minute period, cells were perfused with DMSO-assay buffer to remove the agonist, which was followed by addition of 100 μM mustard oil (in DMSO-assay buffer) to determine the total number of TrpA1-expressing neurons present. Images were acquired on a Nikon Eclipse Ti microscope (Nikon, Melville, N.Y.).
# [2] = biological target: 5-HT1A (Homo sapiens, UniProt P08908); experiment: NIMH PDSP binding assay; settings: primary screening, mean of N = 4 determinations
# Excerpt: (§1) To determine if optovin's mechanism of action could be predicted via behavioral profiling^30,32, optovin's behavioral profile was compared to the behavioral profiles of 700 annotated neuroactive compounds tested in triplicate. These compounds include ligands targeting the adrenergic, serotonergic, histaminergic, dopaminergic, cholinergic and glutamatergic pathways. […] To gain insight into optovin's mechanism of action, optovin and two active optovin analogs were profiled using the National Institutes of Mental Health Psychoactive Drug Screening Program (NIMH PDSP) to determine their activities against a panel of human and rodent CNS receptors, channels and transporters.
# (§2) Activity determinations were generously provided by the National Institute of Mental Health's Psychoactive Drug Screening Program, Contract # HHSN-271-2008-00025-C(NIMH PDSP). Complete assay details are found on-line at: http://pdsp.med.unc.edu/UNC-CH %20Protocol %20Book.pdf
# [3] = biological target: 5-HT1B (Homo sapiens, UniProt P28222); experiment: NIMH PDSP binding assay; settings: primary screening, mean of N = 4 determinations
# Excerpt: as §1, §2
# [4] = biological target: 5-HT1D (Homo sapiens, UniProt P28221); experiment: NIMH PDSP binding assay; settings: primary screening, mean of N = 4 determinations
# Excerpt: as §1, §2
# [5] = biological target: 5-HT2B (Homo sapiens, UniProt P41595); experiment: NIMH PDSP binding assay; settings: primary screening, mean of N = 4 determinations
# Excerpt: as §1, §2
# [6] = biological target: 5-HT2C (Homo sapiens, UniProt P28335); experiment: NIMH PDSP binding assay; settings: primary screening, mean of N = 4 determinations
# Excerpt: as §1, §2
# [7] = biological target: 5-HT3 (Homo sapiens, UniProt P46098); experiment: NIMH PDSP binding assay; settings: primary screening, mean of N = 4 determinations
# Excerpt: as §1, §2
# [8] = biological target: 5-ht1e (Homo sapiens, UniProt P28566); experiment: NIMH PDSP binding assay; settings: primary screening, mean of N = 4 determinations
# Excerpt: as §1, §2
# [9] = biological target: A2B2 (Rattus norvegicus, UniProt P12389+P12390); experiment: NIMH PDSP binding assay; settings: primary screening, mean of N = 4 determinations
# Excerpt: as §1, §2
# [10] = biological target: A3B4 (Rattus norvegicus, UniProt P04757+P12392); experiment: NIMH PDSP binding assay; settings: primary screening, mean of N = 4 determinations
# Excerpt: as §1, §2
# [11] = biological target: Alpha1B (Homo sapiens, UniProt P35368); experiment: NIMH PDSP binding assay; settings: primary screening, mean of N = 4 determinations
# Excerpt: as §1, §2
# [12] = biological target: Alpha2A (Homo sapiens, UniProt P08913); experiment: NIMH PDSP binding assay; settings: primary screening, mean of N = 4 determinations
# Excerpt: as §1, §2
# [13] = biological target: Alpha2C (Homo sapiens, UniProt P18825); experiment: NIMH PDSP binding assay; settings: primary screening, mean of N = 4 determinations
# Excerpt: as §1, §2
# [14] = biological target: T1, Beta1 (Homo sapiens, UniProt P08588); experiment: NIMH PDSP binding assay; settings: primary screening, mean of N = 4 determinations
# T1 construct: NIMH PDSP
# Excerpt: as §1, §2
# [15] = biological target: T2, Beta3 (Homo sapiens, UniProt P13945); experiment: NIMH PDSP binding assay; settings: primary screening, mean of N = 4 determinations
# T2 construct: NIMH PDSP
# Excerpt: as §1, §2
# [16] = biological target: T3, DAT (Homo sapiens, UniProt Q01959); experiment: NIMH PDSP binding assay; settings: primary screening, mean of N = 4 determinations
# T3 construct: NIMH PDSP
# Excerpt: as §1, §2
# [17] = biological target: T4, DOR (Homo sapiens, UniProt P41143); experiment: NIMH PDSP binding assay; settings: primary screening, mean of N = 4 determinations
# T4 construct: NIMH PDSP
# Excerpt: as §1, §2
# [18] = biological target: T5, H1 (Homo sapiens, UniProt P35367); experiment: NIMH PDSP binding assay; settings: primary screening, mean of N = 4 determinations
# T5 construct: NIMH PDSP
# Excerpt: as §1, §2
# [19] = biological target: T6, M1 (Homo sapiens, UniProt P11229); experiment: NIMH PDSP binding assay; settings: primary screening, mean of N = 4 determinations
# T6 construct: NIMH PDSP
# Excerpt: as §1, §2
# [20] = biological target: T7, M3 (Homo sapiens, UniProt P20309); experiment: NIMH PDSP binding assay; settings: primary screening, mean of N = 4 determinations
# T7 construct: NIMH PDSP
# Excerpt: as §1, §2
# [21] = biological target: T8, M5 (Homo sapiens, UniProt P08912); experiment: NIMH PDSP binding assay; settings: primary screening, mean of N = 4 determinations
# T8 construct: NIMH PDSP
# Excerpt: as §1, §2
# [22] = biological target: T9, MOR (Homo sapiens, UniProt P35372); experiment: NIMH PDSP binding assay; settings: primary screening, mean of N = 4 determinations
# T9 construct: NIMH PDSP
# Excerpt: as §1, §2
# [23] = biological target: T10, NET (Homo sapiens, UniProt P23975); experiment: NIMH PDSP binding assay; settings: primary screening, mean of N = 4 determinations
# T10 construct: NIMH PDSP
# Excerpt: as §1, §2
# [24] = tested on: Sigma 1; experiment: NIMH PDSP binding assay; settings: primary screening, mean of N = 4 determinations
# Excerpt: as §1, §2
# [25] = biological target: Sigma 2 (Rattus norvegicus, UniProt Q5U3Y7); experiment: NIMH PDSP binding assay; settings: primary screening, mean of N = 4 determinations
# Excerpt: as §1, §2
# T6 sequence (P11229 whole entry): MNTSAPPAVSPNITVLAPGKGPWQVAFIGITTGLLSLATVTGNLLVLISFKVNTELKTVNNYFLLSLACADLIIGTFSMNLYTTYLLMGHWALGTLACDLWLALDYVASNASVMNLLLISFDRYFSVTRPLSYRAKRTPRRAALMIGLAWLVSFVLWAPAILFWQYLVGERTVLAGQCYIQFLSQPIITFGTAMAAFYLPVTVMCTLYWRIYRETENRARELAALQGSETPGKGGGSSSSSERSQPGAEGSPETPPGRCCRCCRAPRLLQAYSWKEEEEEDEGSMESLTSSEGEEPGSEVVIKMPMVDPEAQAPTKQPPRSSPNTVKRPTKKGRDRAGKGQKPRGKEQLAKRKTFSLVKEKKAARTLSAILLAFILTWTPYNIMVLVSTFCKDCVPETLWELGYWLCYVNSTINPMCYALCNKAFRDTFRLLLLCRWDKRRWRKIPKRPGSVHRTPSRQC
# T4 sequence (P41143 whole entry): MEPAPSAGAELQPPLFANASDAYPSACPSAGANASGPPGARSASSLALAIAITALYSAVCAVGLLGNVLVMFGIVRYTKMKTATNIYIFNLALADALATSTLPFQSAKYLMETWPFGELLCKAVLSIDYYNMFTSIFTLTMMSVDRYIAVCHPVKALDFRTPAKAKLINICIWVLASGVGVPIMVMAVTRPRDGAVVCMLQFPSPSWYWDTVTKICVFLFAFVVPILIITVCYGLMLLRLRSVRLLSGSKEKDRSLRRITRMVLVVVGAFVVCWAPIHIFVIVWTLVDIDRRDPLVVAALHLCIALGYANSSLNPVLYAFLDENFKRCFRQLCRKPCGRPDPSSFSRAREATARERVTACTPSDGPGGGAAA
# Chain of Alpha1B (P35368 whole entry): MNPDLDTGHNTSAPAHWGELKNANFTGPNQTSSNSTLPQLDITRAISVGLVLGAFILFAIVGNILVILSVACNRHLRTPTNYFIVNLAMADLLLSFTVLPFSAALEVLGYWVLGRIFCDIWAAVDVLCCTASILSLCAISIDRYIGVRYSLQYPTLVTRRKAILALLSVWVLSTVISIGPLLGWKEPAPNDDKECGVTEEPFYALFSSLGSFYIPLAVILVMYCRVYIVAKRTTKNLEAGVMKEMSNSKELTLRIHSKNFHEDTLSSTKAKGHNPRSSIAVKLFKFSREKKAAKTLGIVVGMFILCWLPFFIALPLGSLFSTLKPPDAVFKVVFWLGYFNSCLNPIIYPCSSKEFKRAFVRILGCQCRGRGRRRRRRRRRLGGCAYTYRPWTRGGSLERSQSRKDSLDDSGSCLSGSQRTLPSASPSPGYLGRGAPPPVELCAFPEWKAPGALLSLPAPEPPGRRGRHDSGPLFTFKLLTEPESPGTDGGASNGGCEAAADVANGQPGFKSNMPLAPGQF
# Chain of A3B4 (P04757 26-499): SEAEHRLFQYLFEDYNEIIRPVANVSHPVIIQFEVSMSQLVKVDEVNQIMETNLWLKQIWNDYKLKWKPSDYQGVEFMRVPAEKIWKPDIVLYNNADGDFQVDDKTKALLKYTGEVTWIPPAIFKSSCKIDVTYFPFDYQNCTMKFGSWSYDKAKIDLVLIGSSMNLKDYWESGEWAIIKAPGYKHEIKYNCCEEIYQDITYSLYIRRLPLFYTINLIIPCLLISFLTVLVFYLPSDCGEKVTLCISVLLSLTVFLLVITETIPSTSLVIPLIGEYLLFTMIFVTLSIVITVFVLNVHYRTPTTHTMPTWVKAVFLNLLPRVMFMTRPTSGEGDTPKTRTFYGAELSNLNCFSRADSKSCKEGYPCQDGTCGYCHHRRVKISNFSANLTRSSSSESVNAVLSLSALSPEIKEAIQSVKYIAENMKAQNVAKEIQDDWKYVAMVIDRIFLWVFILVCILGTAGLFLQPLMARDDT
# Chain of A3B4 (P12392 21-495): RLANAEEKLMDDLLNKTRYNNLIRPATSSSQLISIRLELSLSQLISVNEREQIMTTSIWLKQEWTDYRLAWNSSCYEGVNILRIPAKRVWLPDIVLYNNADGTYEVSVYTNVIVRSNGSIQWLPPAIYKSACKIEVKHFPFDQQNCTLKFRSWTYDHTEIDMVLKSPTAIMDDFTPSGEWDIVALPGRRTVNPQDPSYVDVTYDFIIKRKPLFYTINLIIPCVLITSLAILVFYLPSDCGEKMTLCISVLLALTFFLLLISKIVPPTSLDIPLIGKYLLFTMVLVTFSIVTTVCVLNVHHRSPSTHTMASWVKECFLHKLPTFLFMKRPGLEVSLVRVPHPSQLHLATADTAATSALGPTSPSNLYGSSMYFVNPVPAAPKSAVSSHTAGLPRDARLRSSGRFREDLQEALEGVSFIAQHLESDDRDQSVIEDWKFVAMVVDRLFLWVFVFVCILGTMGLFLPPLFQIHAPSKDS
# Chain of Sigma 2 (Q5U3Y7 whole entry): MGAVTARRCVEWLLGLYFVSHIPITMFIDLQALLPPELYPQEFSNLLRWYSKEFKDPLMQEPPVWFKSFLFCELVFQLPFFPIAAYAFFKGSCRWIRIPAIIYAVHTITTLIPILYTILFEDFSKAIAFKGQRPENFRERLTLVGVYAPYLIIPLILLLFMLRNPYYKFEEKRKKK
# Chain of Alpha2C (P18825 whole entry): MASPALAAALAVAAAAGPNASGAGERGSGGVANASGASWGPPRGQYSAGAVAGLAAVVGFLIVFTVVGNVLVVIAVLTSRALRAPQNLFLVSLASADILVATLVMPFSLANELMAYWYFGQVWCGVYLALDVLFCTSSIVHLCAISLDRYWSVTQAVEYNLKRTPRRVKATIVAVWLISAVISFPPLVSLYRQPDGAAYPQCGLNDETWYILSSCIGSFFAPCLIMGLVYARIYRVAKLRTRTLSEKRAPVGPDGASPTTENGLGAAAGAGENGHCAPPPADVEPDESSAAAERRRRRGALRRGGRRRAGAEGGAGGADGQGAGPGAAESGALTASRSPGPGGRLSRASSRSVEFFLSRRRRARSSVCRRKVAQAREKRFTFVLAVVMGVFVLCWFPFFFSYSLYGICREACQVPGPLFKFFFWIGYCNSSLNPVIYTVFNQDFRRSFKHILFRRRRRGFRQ
# Chain of 5-HT3 (P46098 24-478, species assumed): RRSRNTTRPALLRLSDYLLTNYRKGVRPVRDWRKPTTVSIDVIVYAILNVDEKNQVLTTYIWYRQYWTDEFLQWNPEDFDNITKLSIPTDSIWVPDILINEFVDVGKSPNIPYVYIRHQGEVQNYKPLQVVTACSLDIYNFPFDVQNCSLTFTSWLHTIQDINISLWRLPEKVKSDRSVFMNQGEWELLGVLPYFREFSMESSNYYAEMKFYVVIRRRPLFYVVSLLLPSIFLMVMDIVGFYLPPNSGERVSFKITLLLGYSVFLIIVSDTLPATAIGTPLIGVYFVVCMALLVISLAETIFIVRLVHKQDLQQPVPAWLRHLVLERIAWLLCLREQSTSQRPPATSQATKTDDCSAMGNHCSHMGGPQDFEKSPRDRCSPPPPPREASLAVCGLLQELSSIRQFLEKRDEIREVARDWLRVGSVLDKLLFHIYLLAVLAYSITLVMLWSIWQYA
# Chain of 5-HT1B (P28222 whole entry, species assumed): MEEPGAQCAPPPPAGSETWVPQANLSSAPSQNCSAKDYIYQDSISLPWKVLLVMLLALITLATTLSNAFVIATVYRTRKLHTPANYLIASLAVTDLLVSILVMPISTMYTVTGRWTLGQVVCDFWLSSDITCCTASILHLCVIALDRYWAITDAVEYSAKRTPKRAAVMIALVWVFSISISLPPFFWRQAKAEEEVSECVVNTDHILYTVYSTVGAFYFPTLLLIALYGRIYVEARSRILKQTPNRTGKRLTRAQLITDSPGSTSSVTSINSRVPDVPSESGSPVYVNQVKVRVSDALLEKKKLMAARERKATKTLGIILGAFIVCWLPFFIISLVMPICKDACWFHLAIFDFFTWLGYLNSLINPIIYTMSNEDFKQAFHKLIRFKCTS
# T9 sequence (P35372 whole entry): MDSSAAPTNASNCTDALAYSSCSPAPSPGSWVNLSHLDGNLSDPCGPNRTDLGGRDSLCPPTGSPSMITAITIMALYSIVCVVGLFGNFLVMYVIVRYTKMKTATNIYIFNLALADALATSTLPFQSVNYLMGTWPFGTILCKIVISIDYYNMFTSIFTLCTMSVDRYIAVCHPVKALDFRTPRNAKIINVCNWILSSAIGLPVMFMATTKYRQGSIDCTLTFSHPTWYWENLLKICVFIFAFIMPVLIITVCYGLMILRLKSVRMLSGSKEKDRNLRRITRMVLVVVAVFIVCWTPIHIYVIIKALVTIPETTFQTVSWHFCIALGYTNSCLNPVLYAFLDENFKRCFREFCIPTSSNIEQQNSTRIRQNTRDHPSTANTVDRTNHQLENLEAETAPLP
# T5 sequence (P35367 whole entry): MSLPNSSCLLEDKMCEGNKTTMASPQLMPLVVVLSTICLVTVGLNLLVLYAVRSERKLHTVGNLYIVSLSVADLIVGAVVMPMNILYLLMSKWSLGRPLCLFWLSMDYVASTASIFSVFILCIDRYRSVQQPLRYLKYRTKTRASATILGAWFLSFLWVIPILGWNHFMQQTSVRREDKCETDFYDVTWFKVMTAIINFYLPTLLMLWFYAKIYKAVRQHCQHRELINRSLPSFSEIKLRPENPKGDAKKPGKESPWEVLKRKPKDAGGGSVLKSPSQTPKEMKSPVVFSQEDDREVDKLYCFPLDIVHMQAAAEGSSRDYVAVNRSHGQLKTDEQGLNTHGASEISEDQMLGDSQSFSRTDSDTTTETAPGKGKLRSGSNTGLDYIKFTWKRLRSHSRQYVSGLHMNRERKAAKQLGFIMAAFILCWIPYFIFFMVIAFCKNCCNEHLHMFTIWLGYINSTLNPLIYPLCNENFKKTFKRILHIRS
compound,measurement,setting,value
Cc1cc(/C=C2/SC(=S)NC2=O)c(C)n1-c1cccnc1 [optovin],activation of DRG neurons with light,"[1]; 100 μM optovin, illuminated (Fura-2 imaging)",strongly activated
same,activation of DRG neurons in the dark,[1]; optovin treatment in the dark,did not occur
same,Avg % inhibition (5-HT1A),[2],6.7%
same,Avg % inhibition (5-HT1B),[3],11.8%
same,Avg % inhibition (5-HT1D),[4],12.9%
same,Avg % inhibition (5-HT2B),[5],−2.0%
same,Avg % inhibition (5-HT2C),[6],7.0%
same,Avg % inhibition (5-HT3),[7],−1.7%
same,Avg % inhibition (5-ht1e),[8],−21.5%
same,Avg % inhibition (A2B2),[9],−19.2%
same,Avg % inhibition (A3B4),[10],−12.5%
same,Avg % inhibition (Alpha1B),[11],7.2%
same,Avg % inhibition (Alpha2A),[12],40.5%
same,Avg % inhibition (Alpha2C),[13],3.3%
same,Avg % inhibition (Beta1),[14],19.4%
same,Avg % inhibition (Beta3),[15],20.2%
same,Avg % inhibition (DAT),[16],1.5%
same,Avg % inhibition (DOR),[17],−7.2%
same,Avg % inhibition (H1),[18],1.1%
same,Avg % inhibition (M1),[19],32.9% and 16.9%
same,Avg % inhibition (M3),[20],9.1%
same,Avg % inhibition (M5),[21],3.7%
same,Avg % inhibition (MOR),[22],−0.7%
same,Avg % inhibition (NET),[23],−1.3%
same,Avg % inhibition (Sigma 1),[24],−13.7%
same,Avg % inhibition (Sigma 2),[25],16.0%
